Source: patent EP4755881A1 (Wuhan Createrna Science and Technology Co., Ltd., priority 2023, dated 2025)
Read-outs that look alike come from different tables or passages of the source.

How the values were obtained:
[1] = target: hLPAR1 (human lysophosphatidic acid receptor 1, Accession No.: NM_001401.4) (Homo sapiens, UniProt Q92633); experiment: cell-based; settings: FLIPR method, CHO-K1 cells overexpressing hLPAR1
Experimental: The antagonist properties of the compounds in the present disclosure were determined using the FLIPR (Fluorometric Imaging Plate Reader) method in CHO-K1 cells (Chinese Hamster Ovary cells K1, ATCC) overexpressing hLPAR1 (human lysophosphatidic acid receptor 1, Accession No.: NM_001401.4).
CHO-K1 cells stably expressing hLPAR1 were placed in a cell culture incubator at 37°C with 5% CO2 and cultured in F-12 medium containing 10% FBS (fetal bovine serum, Gibco, 10099-141), 1% penicillin-streptomycin (Gibco, 15140-122), and 0.4 mg/mL Hygromycin B (Gibco, 10687010). 18-24 hours before the FLIPR experiment, the cells were seeded into a 96-well plate at a density of 250,000 cells/mL (25,000 cells/well) and incubated overnight in the cell culture incubator. On the day of the experiment, the medium was removed, and the cells were washed with FLIPR buffer (2.5 mM probenecid (Thermo, P36400), 1.3 mM CaCl2, 3.3 mM Na2CO3, 1 mM MgSO4, 20 mM HEPES (Invitrogen, 15630080), 1× HBSS (Invitrogen, 14065056), 0.1% BSA (BioSharp, 70080030)). 75 µL of […] Fluo-4 AM fluorescent dye (Thermo, F14202) was added to each well and incubated for 1.0 hour at 37°C for dye loading. The 96-well plate was then washed once with buffer, and 50 µL of buffer containing the test compound or vehicle was added to each well, followed by incubation at room temperature for 30 min. The cell plate was then placed into the FLIPR for baseline fluorescence measurement (excitation wavelength at 485 nm, emission wavelength at 525 to 535 nm). Subsequently, 50 µL/well of agonist (final concentration 1 µM oleoyl-L-α-lysophosphatidic acid sodium salt (Sigma, L7260)) or vehicle (ultrapure water) was added, and fluorescence values were measured at 1-second intervals for 2 min. Finally, the output fluorescence counts were analyzed using GraphPad Prism 9.0 software log(inhibitor) vs. response--Variable slope (four parameters) equation to calculate IC50 values.
Table 1: Inhibitory activity data of compounds against LPAR1

[2] = Pharmacokinetic study in rats (oral gavage and tail vein injection, plasma LC-MS/MS); assay type: in vivo; settings: rat, SD rats, 1 mg/kg; for Cmax: read-out: Cmax
Experimental: Male SPF-grade SD rats (Beijing Vital River Laboratory Animal Technology Co., Ltd.) with a body weight range of 200 to 250 g were used. After acclimatization, the rats were administered a clear solution of the compound of the present disclosure via oral gavage (Po, fasted overnight before administration with free access to water, food returned 4 hours after administration) and tail vein injection (Iv, free access to food and water throughout the administration). Blood samples were collected from the orbital venous plexus/jugular vein of rats at specified time points after administration (blood collection time points for the PO group: 0.167, 0.5, 1, 2, 4, 6, 8, and 24 h; for the IV group: 0.033, 0.167, 1, 2, 4, 6, 8, and 24 h). The concentration of compounds in plasma was detected by LC-MS/MS (AB SCIEX Qtrap4500). Data were analyzed using WinNonlin (version 5.2.1 Pharsight, Mountain View, CA) with a non-compartmental model to obtain PK parameters (including Cmax, C0, Tmax, AUClast, AUCinf, T1/2, etc.).
Table 3: Results of in vivo pharmacokinetic studies of compounds of the present disclosure in rats
The vehicle for the Po group compound was 5% DMSO + 5% ethanol + 60% PEG400 + 30% normal saline; the vehicle for the Iv group compound was 10% ethanol + 20% pure water + 70% PEG400 solution.

[3] = LPAR1 inhibitory activity IC50, Table 1
[4] = Table 1, read-out: LPAR1 inhibitory activity IC50

Sequence of hLPAR1 (human lysophosphatidic acid receptor 1, Accession No.: NM_001401.4) (Q92633 whole entry): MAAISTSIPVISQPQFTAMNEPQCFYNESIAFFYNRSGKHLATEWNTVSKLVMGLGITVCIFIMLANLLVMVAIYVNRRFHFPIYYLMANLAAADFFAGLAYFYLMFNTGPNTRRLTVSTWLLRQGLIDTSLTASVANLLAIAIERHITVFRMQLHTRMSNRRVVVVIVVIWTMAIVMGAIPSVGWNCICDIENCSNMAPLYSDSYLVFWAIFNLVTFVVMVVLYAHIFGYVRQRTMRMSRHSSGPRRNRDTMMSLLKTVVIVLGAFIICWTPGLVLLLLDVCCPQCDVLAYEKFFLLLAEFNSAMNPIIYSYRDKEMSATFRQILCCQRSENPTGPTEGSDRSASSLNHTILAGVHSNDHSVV

SMILES | IC50 [1, 3] | IC50 [1, 4] | other results
CCCCN(C)C(=O)OCc1c(-c2ccc(C#CC3(CC(=O)O)CC3)c(F)n2)nnn1C [compound 105] | 56.2 nM | – | AUC(0-t) ([2]; Iv): 1200 to 3000 ng·h/mL; half-life ([2]; Iv): 4.72 h; Cmax ([2]; Iv): 800 to 5000 ng/mL; AUC(0-t) ([2]; Po): 1200 to 3000 ng·h/mL; half-life ([2]; Po): 6.6 h; Cmax ([2]; Po): 200 to 800 ng/mL
Cc1nc(-c2nnn(C)c2Nc2cncc(OC(C)C)n2)ccc1C#CC1(CC(=O)O)CC1 [compound 125, 2-(1-((6-(5-((6-isopropoxypyrazin-2-yl)amino)-1-methyl-1/7-1,2,3-triazol-4-yl)-2-methylpyridin-3-yl)ethynyl)cyclopropyl)acetic acid] | 43.6 nM | – | AUC(0-t) ([2]; Iv): 1200 to 3000 ng·h/mL; half-life ([2]; Iv): 4.65 h; Cmax ([2]; Iv): 800 to 5000 ng/mL
Cc1nc(-c2nnn(C)c2NC(=O)O[C@H](C)C(F)(F)C(C)C)ccc1C#C[C@@H]1CC[C@H]1C(=O)O [compound 307] | – | 151 nM | –
Cc1nc(-c2nnn(C)c2NC(=O)O[C@H](C)C(C)C)ccc1C#CC1(CC(=O)O)CC1 [compound 310] | 114 nM | – | –
Cc1nc(-c2nnn(C)c2NC(=O)OC(C)C(C)(C)C)ccc1C#CC1(CC(=O)O)CC1 (centres unmarked) [compound 319] | 124 nM | – | –
CCC[C@@H](C)OC(=O)Nc1c(-c2ccc(C#CC3(CC(=O)O)CCC3)c(C)n2)nnn1C [compound 325] | 40.3 nM | – | –
CCC[C@@H](C)OC(=O)Nc1c(C)noc1-c1ccc(C#C[C@@H]2CC[C@H]2C(=O)O)c(C)n1 [compound 339] | – | 2.6 nM | –
Cc1nc(-c2onc(C)c2NC(=O)O[C@H](C)CC(C)(F)F)ccc1C#C[C@@H]1CCC[C@H]1C(=O)O [compound 343] | – | 5.7 nM | –
Cc1noc(-c2ccc(C#C[C@@H]3CCC[C@H]3C(=O)O)cn2)c1NC(=O)O[C@H](C)CC(C)(F)F [compound 344] | – | 104 nM | –
CCOCc1ccnc(NCc2c(-c3ccc(C#CC4(CC(=O)O)CC4)c(C)n3)nnn2C)n1 [compound 364] | – | 203 nM | –
Cc1noc(-c2ccc(C#CC3(CNS(=O)(=O)O)CC3)c(F)c2)c1NC(=O)O[C@H](C)c1ccccc1Cl [compound 460] | – | 11.8 nM | –
